Measured values taken from patent US20220025036A1, “USE OF IL-1BETA BINDING ANTIBODIES” (NOVARTIS AG, priority 2018, published 2022).
Values belong to the compound of their own block, whether it stands above or below them.

Legend:
[1] = tested on: bone vasculature; assay: Bone microvasculature after IL-1 blockade in mice (CD34 staining, ELISA for endothelin 1 and VEGF); assay type: in vivo, mouse; conditions: for average length of CD34+ blood vessels in trabecular bone: IL-1Ra in BALB/c nude mice, canakinumab in C57BL/6 mice; for average length of CD34+ blood vessels in trabecular bone / endothelin 1 concentration (ELISA) vs control: p<0.01; for VEGF concentration (ELISA) vs control / endothelin 1 concentration (ELISA) vs control: bone marrow; for VEGF concentration (ELISA) vs control: IL-1R antagonist p<0.01, canakinumab p<0.001
Description: FIG. 7. IL-1β in the bone microenvironment stimulates expansion of the bone metastatic niche. Effects of adding 40 pg/ml or 5 ng/ml recombinant IL-1β to MDA-MB-231 or T47D breast cancer cells is shown in (a) and effects on adding 20 pg/ml, 40 pg/ml or 5 ng/ml IL-1B on proliferation of HS5, bone marrow, or OB1, osteoblasts, are shown in b) and c) respectively. (d) IL-1 driven alterations to the bone vasculature was measured following CD34 staining in the trabecular region of the tibiae from 10-12-week old female IL-1R1 knockout mice. […] Data are shown as mean+/−SEM, *=P<0.01, **=P<0.001, ***=P<0.0001.
FIG. 8. Suppression of IL-1 signalling affects bone integrity and vasculature. […] Data shown are mean+/−SEM, *=P<0.01, **=P<0.001, ***=P<0.0001 compared with control.
(§1) Tumor cells, serum, and bone were subsequently resected for downstream analysis.

[2] = tested on: MDA-MB-231Luc2-TdTomato cells; assay: Spontaneous human breast cancer metastasis to human bone implants in NOD SCID mice; assay type: in vivo, mouse; conditions: for size of bone metastases vs control group: FIG. 4a; for mice with metastasis detected in human bone implants: n=10/group, IL-1Ra 1 mg/kg daily, canakinumab 10 mg/kg s.c. every 14 days from day 7, control 7 out of 10; for tumor cells counted in whole blood: placebo 108 tumor cells/ml
Description: FIG. 4. Pharmacological blockade of IL-1β inhibits spontaneous metastasis to human bone in vivo. Female NOD-SCID mice bearing two 0.5 cm^3 pieces of human femoral bone received intra-mammary injections of MDA-MB-231Luc2-TdTomato cells. […] All animals were culled 35 days following tumour cell injection. Effects on bone metastases (a) were assessed in vivo and immediately post-mortem by luciferase imaging and confirmed ex vivo on histological sections. Data are shown as numbers of photons per second emitted 2 minutes following sub-cutaneous injection of D-luciferin. Effects on numbers of tumour cells detected in the circulation are shown in (b). *=P<0.01, **=P<0.001, ***=P<0.0001.
To model human breast cancer metastasis to human bone implants two human bone discs were implanted subcutaneously into 10-week old female NOD SCID mice (n=10/group) under isofluorane anaesthetic. Mice received an injection of 0.003 mg vetergesic and Septrin was added to the drinking water for 1 week following bone implantation. Mice were left for 4 weeks before injecting 1×10^5 MDA-MB-231 Luc2-TdTomato, MCF7 Luc2 or T47D Luc2 cells in 20% Martigel/79% PBS/1% […] into the two hind mammary fat pads. Primary tumor growth and development of metastases was monitored weekly using an IVIS […] system (Caliper Life Sciences) following sub-cutaneous injection of 30 mg/ml D-luciferin (Invitrogen). On termination of experiments mammary tumors, circulating tumor cells, serum and bone metastases were resected. RNA was processed for downstream analysis by real time PCR, and cell lysates were taken for protein analysis and whole tissue for histology as previously described (Nutter et al., 2014; Ottewell et al., 2014a).
as §1
Whole blood was centrifuged at 10,000×g for 5 minutes and the serum removed for ELISA assays. The cell pellet was re-suspended in 5 ml of FSM lysis solution (Sigma-Aldrich, Pool, UK) to lyse red blood cells. Remaining cells were re-pelleted, washed 3× in PBS and re-suspended in a solution of PBS/10% FCS. Samples from 10 mice per group were pooled prior to isolation of TdTomato positive tumor cells using a MoFlow High performance cell sorter (Beckman Coulter, Cambridge UK) with the […] laser line from a Coherent I-90C tenable argon ion (Coherent, Santa Clara, Calif.). TdTomato fluorescence was detected by a 555LP dichroic long pass and a 580/30 nm band pass filter. Acquisition and analysis of cells was performed using Summit 4.3 software. Following sorting cells were immediately placed in RNA protect cell reagent (Ambion, Paisley, Renfrew, UK) and stored at −80° C. before RNA extraction. For counting numbers of circulating tumor cells, TdTomato fluorescence was detected using a 561 nm laser and an YL1-A filter (585/16 emission filter). Acquisition and analysis of cells was performed using Attune N×T software.

[3] = tested on: CML LSC; conditions: recombinant IL-1RA; cited from earlier work
[4] = tested on: hsCRP; assay: Gevokizumab clinical hsCRP reduction in type 2 diabetes patients; assay type: in vivo, human; conditions: top dose 0.3 mg/kg (~20 mg) Q4W
Description: FIG. 12. Clinical data after gevokizumab treatment (panel a) and its extrapolation to higher doses (panels b, c, and d). Adjusted percent change from baseline in hsCRP in patients in a). The hsCRP exposure-response relationship is shown in b) for six different hsCRP base line concentrations.

[5] = Gevokizumab clinical pharmacokinetics; assay type: in vivo, human; conditions: subcutaneous administration
[6] = tested on: 4T1 tumors; assay: TIL analysis of 4T1 tumors after docetaxel and 01BSUR; assay type: in vivo, mouse
Description: (§2) Female Balb/c mice with 4T1 tumors implanted subcutaneously (s.c.) on the right flank were treated 8 and 15 days post-tumor implant initiating when the tumors reached about 100 mm^3 with the isotype antibody, docetaxel, 01BSUR, or a combination of docetaxel and 01BSUR. […] 5 days after the first dose, tumors were harvested and analyzed for changes to the infiltrating immune cell populations. This was done again at the end point of the study, 4 days after the second dose.

[7] = tested on: 4T1 tumors; assay: 4T1 tumors treated with 01BSUR and docetaxel, tumor burden; assay type: in vivo, mouse; conditions: 4T1 s.c., treated days 8 and 15 post implant
Description: FIG. 16. Mice were implanted with 4T1 cells sc and treated with the indicated treatments on days 8 and 15 post tumor implant. There were 10 mice in each group.
as §2

[8] = tested on: LL2; assay: Anti-IL-1β in combination with docetaxel in aggressive lung model (LL2); assay type: in vivo, mouse; conditions: LL2, FIG. 15A
[9] = tested on: interleukin 6; conditions: 50, 150, 300 mg s.c. every 3 months, dose-dependent; median follow-up 3.7 years; cited from earlier work
[10] = target: mouse IL-1β (Mus musculus, UniProt P10749); assay: Cross-reactivity with mouse IL-1β; assay type: binding
Sequence of mouse IL-1β (P10749 118-269): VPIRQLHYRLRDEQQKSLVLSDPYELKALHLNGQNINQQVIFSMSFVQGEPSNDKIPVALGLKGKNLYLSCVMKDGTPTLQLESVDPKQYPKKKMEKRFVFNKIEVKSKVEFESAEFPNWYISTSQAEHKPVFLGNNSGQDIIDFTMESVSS

[11] = tested on: high-sensitivity C-reactive protein (hsCRP); conditions: 50, 150, 300 mg s.c. every 3 months, dose-dependent; median follow-up 3.7 years; cited from earlier work

Compound: IL-1Ra: recombinant IL-1 receptor antagonist (Anakinra)
average length of CD34+ blood vessels in trabecular bone [1]: reduced
VEGF concentration (ELISA) vs control [1]: reduced concentrations
endothelin 1 concentration (ELISA) vs control [1]: reduced concentrations
size of bone metastases vs control group [2]: smaller
mice with metastasis detected in human bone implants [2]: 4 out of 10
tumor cells counted in whole blood [2]: 3 tumor cells/ml
growth of CML LSC [3]: inhibited growth

Compound: gevokizumab: high-affinity, humanized monoclonal antibody of the IgG2 isotype to interleukin-1β (SEQ ID NO:19 and 20)
reduction of hsCRP [4]: up to 45%
Bioavailability [5]: about 56%

Compound: CC(=O)O[C@@]12CO[C@@H]1C[C@H](O)[C@@]1(C)C(=O)[C@H](O)C3=C(C)[C@@H](OC(=O)[C@H](O)[C@@H](NC(=O)OC(C)(C)C)c4ccccc4)C[C@@](O)([C@@H](OC(=O)c4ccccc4)[C@H]21)C3(C)C [docetaxel]
CD4+ and CD8+ T cells expressing TIM-3 vs control ([6]; 4 days after a second dose): no change
granulocytic MDSC in 4T1 tumors ([6]; 5 days after a single dose): decrease
monocytes in 4T1 tumors vs vehicle/isotype ([6]; 5 days after a single dose): decrease
monocytic MDSC in 4T1 tumors ([6]; 5 days after a single dose): decrease
neutrophils in 4T1 tumors ([6]; 5 days after a single dose): decrease
tumor growth vs vehicle/isotype control [7]: enhanced
efficacy (tumor growth) [8]: modest efficacy

cross-reactivity with mouse IL-1β [10]: does not cross-react
Compound: canakinumab: high-affinity, fully human monoclonal antibody of the IgG1/k to interleukin-1β (SEQ ID NO:17 and 18)
average length of CD34+ blood vessels in trabecular bone [1]: reduced
VEGF concentration (ELISA) vs control [1]: reduced concentrations
endothelin 1 concentration (ELISA) vs control [1]: reduced concentrations
size of bone metastases vs control group [2]: smaller
mice with metastasis detected in human bone implants [2]: 1 out of 10
tumor cells counted in whole blood [2]: 3 tumor cells/ml
reductions in concentrations of interleukin 6 compared with placebo [9]: 25-43%
reductions in concentrations of hsCRP compared with placebo [11]: 26-41%
